Laboratory results as given in US5380763A, “Topical composition for treating acne vulgaris” (Takasago International Corporation, priority 1992, dated 1995).
Values after ≈ are worked out from the molar mass of the structure shown. Read-outs that look alike come from different tables or passages of the source.

Columns and labels:
[1] = tested on: Staphylococcus aureaus; conditions: among 1-alkanols having 10 to 16 carbon atoms; Kato et al. (1980); cited from earlier work
[2] = tested on: Propionibacterium acnes; assay: Minimum inhibitory concentration (MIC) against Propionibacterium acnes (Test Example 1); type: cell-based, Propionibacterium acnes (ATCC 6919); conditions: Cutibacterium acnes
Protocol: The minimum inhibitory concentration (MIC) of 1-pentadecanol against Propionibacterium acnes was determined as follows.
In 1 l of purified water was dissolved 59.0 g of a GAM (Gifu anaerobic medium) bouillon medium (Nissui Pharmaceutical Co., Ltd.) and 1-pentadecanol was added to the bouillon solution to give a concentration of 100 μg/ml. The mixture was stepwise diluted two times with the same medium, followed by sterilization.
A 10 ml aliquot of the mixture was put in a test tube and inoculated with 0.1 ml of the culture of Propionibacterium acnes (ATCC 6919) which had been precultured so as to give a cell density of 1×10^8 cells/ml. The system was static-cultured under anaerobic conditions for 48 hours, and the turbidity was measured at a wavelength of 660 nm to obtain MIC (μg/ml).
For comparison, MIC of 1-dodecanol and 1-hexadecanol, which have relatively strong antibacterial activity on several bacteria and are generally used as a base of cosmetics, against Propionibacterium acnes was obtained in the same manner.

[3] = GAM bouillon medium, anaerobic static culture 48 hours, turbidity at 660 nm, read-out: MIC

Structure (SMILES)	effectiveness on Staphylococcus aureaus [1]	MIC [2, 3] [µg/mL]	MIC ([2]; 48 h) [µg/mL]
CCCCCCCCCCCCO [1-dodecanol]	the most effective	25 (≈ 134 µM)	
CCCCCCCCCCCCCCCO [1-pentadecanol]			3.13 (≈ 13.7 µM)
CCCCCCCCCCCCCCCCO [1-hexadecanol]		> 200	
